Tests used:
compressibility = type: physicochemical
[1] = in water, after three days; pages 44 to 45 of WO 2007019255; cited from earlier work

Compound | compressibility compared with vildagliptin base (compressibility) | active ingredient detectable [1]
Vildagliptin Calcium(II)-Chloride Trihydrate Complex (1:1:3) | compressed significantly more preferably than the vildagliptin base | –
N#C[C@@H]1CCCN1C(=O)CNC12CC3CC(CC(O)(C3)C1)C2 [vildagliptin base, 1-[2-(3-hydroxyadamant-1-yl-amino)acetyl]pyrrolidin-(2S)-carbonitrile] | – | 7.5%
